The results in this text go back to PMC4850295, “Using a Genetically Encoded Sensor to Identify Inhibitors of Toxoplasma gondii Ca^2+ Signaling” (The Journal of Biological Chemistry, 2016).

“And” between values parts separate entries of the source, which are not always exact repeats. Equal entries are not always repeated. Where two headings read alike, the source gives them in different places.

The subject of the assay is T1, GCaMP5-expressing T. gondii.
T1 construct: whole extracellular parasites expressing GCaMP5 Ca2+ sensor
More on the design: species or system GCaMP5-expressing Toxoplasma gondii, extracellular; GCaMP5 fluorescence (cytosolic Ca2+) after 100 uM zaprinast in compound-pretreated extracellular parasites, background-subtracted, relative to zaprinast alone. The settings on record: 100 uM zaprinast stimulation, 10 min pretreatment, mean of two replicates, 0.23 h. The essentials: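 Extracellular GCaMP5-expressing parasites in Ringer's solution were pretreated with compounds (single 10 μM dose, two biological replicates) for 10 min, then stimulated with 100 μM zaprinast at 37 °C for 4 min. Fluorescence read at 485/525 nm, basal subtracted, expressed as fold change relative to zaprinast-only parasites.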

Turning to `Cc1cc(O)cc(C)c1/C=C/c1cncc(C(N)=O)c1` [GW435821X], the “fold change in fluorescence relative to zaprinast alone” value is on record as 1.076.
The same measure, in the same setting: for `CCn1c(-c2nonc2N)nc2c(C#CC(C)(C)O)ncc(OC3CCNCC3)c21` [GSK619487A] the value was 1.184; for `COc1cc(Nc2ncc3c(C)nc(-c4cccc(C(F)(F)F)c4)n3n2)cc(OC)c1OC` [GW837331X], 0.3788; for `Cc1c2ccc(N(C)c3ccnc(Nc4cccc(S(N)(=O)=O)c4)n3)cc2nn1Cc1ccccc1` [GW787226A], 1.348.
For `O=C(NCCNc1ccnc(Nc2ccc(F)cc2)n1)Nc1ccccc1F` [GSK1379880A], the “fold change in fluorescence relative to zaprinast alone” value came out at 1.302.
Take `CN1CCN(CCNc2nc3ccc(Oc4ccc(NC(=O)Nc5cc(C(F)(F)F)ccc5F)cc4)cc3[nH]2)CC1` [GW768504A]: the “fold change in fluorescence relative to zaprinast alone” value came out at 0.9512.
As for `Cc1cccc(-c2nc(Nc3cccc(C(N)=O)c3)c3ccccc3n2)n1` [GW876019X], the “fold change in fluorescence relative to zaprinast alone” value amounted to 1.051.
Still for that read-out and setting: for `CC(C)COC(=O)c1ccc2c(c1)/C(=C/Nc1ccc(S(N)(=O)=O)cc1)C(=O)N2` [GW416981X] the value was 1.146; for `Clc1cc(Cl)cc(Nc2ccnc(Nc3cc(Cl)cc(Cl)c3)n2)c1` [GSK175726A], 0.5192; for `CCCc1ccc(S(=O)(=O)NC2CCN(c3ccnc(Nc4ccc(OC)cc4)n3)C2)cc1` (stereo not shown) [GSK1379737A], 0.6293.
Take `C#Cc1cccc(Nc2ncnc3ccc(OCCCCNCCS(C)(=O)=O)cc23)c1` [GW680191X]: the “fold change in fluorescence relative to zaprinast alone” value turned out to be 1.038.
Still for that read-out and setting: for `Cc1ccc(NC(=O)c2ccoc2)cc1-c1ccc(C(=O)NCC2CC2)cc1` [GW743024X] the value was 1.222; for `NCc1ccc(-c2nc(-c3ccc(Cl)c(O)c3)c(-c3ccncc3)[nH]2)cc1` [SB-476429-A], 1.226; for `COC(=O)Nc1nc2ccc(Oc3ccc(NC(=O)Nc4cc(C(F)(F)F)ccc4Cl)cc3)cc2[nH]1` [GW697465A], 0.849.
Same read-out and setting: for `COc1cc2ncn(-c3cc(OCc4ccccc4C(F)(F)F)c(C(=O)N(C)C)s3)c2cc1OC` [GSK1030062A] the value was 0.999; for `N#Cc1c(NC(=O)c2ccccc2F)sc2c1CCCC2` [GW572738X], 1.241.
Same read-out and setting: for `COc1cc2ncnc(Nc3ccc4c(cnn4Cc4ccccc4)c3)c2cc1OC` [GW282449A] the value was 1.119.
For `Cc1ccccc1-c1cc(-c2cn[nH]c2-c2ccccn2)ccn1` [GW680061X], the “fold change in fluorescence relative to zaprinast alone” value is recorded as 0.8106.
As to `O=c1cc(N2CCOCC2)nc2n(Cc3cccc(Cl)c3Cl)c3ccccc3n12` [GSK2299009A], the “fold change in fluorescence relative to zaprinast alone” value was determined as 1.093.
On the same count and under the same terms, for `Cc1ccc2c(-c3ccncc3)c(-c3ccc(F)cc3)nn2c1` [GW461484A] the value was 0.2133.
Turning to `CN(c1ccc(NC(=O)Nc2c(Cl)cccc2Cl)cc1)c1ccnc(Nc2cccc(CS(C)(=O)=O)c2)n1` [GW809897X], the “fold change in fluorescence relative to zaprinast alone” value is given as 1.103.
The same measure, in the same setting: for `COc1ccc2cc(-c3c(-c4ccncc4)nc(-c4ccc([S+](C)[O-])cc4C)n3C)ccc2c1` (stereo not shown) [SB-630812] the value was 1.111; for `Cc1cc(O)cc(C)c1/C=C/c1cncc(C(=O)OC(C)(C)C)c1` [GW439255X], 1.014.
The same measure, in the same setting: for `COc1cccc(C2=C(Nc3ccc(Cl)c(C(=O)O)c3)C(=O)NC2=O)c1` [SB-390769] the value was 1.176.
On the same count and under the same terms, for `Nc1nccc(-c2c(-c3ccc(F)cc3)ncn2C2CCC(O)CC2)n1` (stereo not shown) [SB-223133] the value was 0.9972; for `O=C(Nc1cccc(-c2nn3ccccc3c2-c2ccnc(Nc3cccc(C(F)(F)F)c3)n2)c1)c1c(F)cccc1F` [GSK292658A], 1.154.
As for `Nc1ncc(-c2ccncc2)c2scc(-c3ccc4c(c3)CCN4C(=O)Cc3ccccc3)c12` [GSK2592465A], the “fold change in fluorescence relative to zaprinast alone” value is listed as 1.243.
On the same count and under the same terms, for `Cc1cccc2c(-c3ccncc3)c(-c3ccc(F)cc3)nn12` [GW461487A] the value was 0.2322; for `CCCN1CCC=C(c2ccc(Nc3nc(Nc4ccccc4C(N)=O)c4cc[nH]c4n3)c(C)c2)C1` [GSK994854A], 1.737; for `COc1cc2ncn(-c3cc(OCCc4ccccc4)c(C(N)=O)s3)c2cc1OC` [GSK204925A], 0.9795.
For the molecule `NC(=O)c1cc(-c2ccncc2)cc(-c2ccccc2)c1N` [GSK625137A], the “fold change in fluorescence relative to zaprinast alone” value is recorded as 1.053.
For the molecule `CC(C)c1nc(-c2cccc(NS(=O)(=O)c3c(F)cccc3F)c2F)c(-c2ccnc(Nc3ccc(N4CCOCC4)nc3)n2)s1` [GSK2008607A], the “fold change in fluorescence relative to zaprinast alone” value was 1.572.
On the same count and under the same terms, for `CN(c1ccc(NC(=O)Nc2cccc(Cl)c2)cc1)c1ccnc(N)n1` [GW830707A] the value was 0.7635; for `Nc1n[nH]c2nnc(-c3ccccc3)c(-c3ccccc3)c12` [GW554060X], 1.19; for `Cn1cncc1-c1cc2c(Nc3ccc(OCc4ccccc4)cc3)ncnc2cn1` [GW281179X], 1.036.
Regarding `CCS(=O)(=O)c1ccc(OC)c(Nc2nccc(-c3c(-c4cccc(NC(=O)c5c(F)cccc5F)c4)nn4ncccc34)n2)c1` [GSK326180A], the “fold change in fluorescence relative to zaprinast alone” value is on record as 1.656.
Still for that read-out and setting: for `Cc1cccc(-c2nc(C)cc(Nc3ccncc3)n2)n1` [GSK257997A] the value was 0.832; for `O=C(Nc1ccccc1F)NC1CCN(c2ccnc(Nc3ccc(F)cc3)n2)CC1` [GSK1379800A], 0.9564.
For the molecule `Cc1ccc2c(-c3ccnc(Nc4ccc5c(c4)OCCO5)n3)c(-c3ccc(C(F)(F)F)cc3)nn2n1` [GW832467X], the “fold change in fluorescence relative to zaprinast alone” value is given as 0.6662.
Same read-out and setting: for `CCOc1nccc(-c2c(-c3ccc(F)cc3)ncn2C2CCNCC2)n1` [SB-249175] the value was 0.6135.
The same measure, in the same setting: for `c1ccc(Cn2cnc3cc(Nc4ncnc5ccccc45)ccc32)cc1` [GW272142A] the value was 1.177.
On the same count and under the same terms, for `O=S(=O)(c1cccc(F)c1)c1ccc(Nc2ncnc3cc(Br)sc23)cc1Cl` [GSK306886A] the value was 1.114; for `COc1ccc(C2=C(Nc3cccc(O)c3)C(=O)NC2=O)cc1` [SB-390766], 1.133.
With `c1ccc(-c2ccc3c(-c4ccnc(Nc5ccc6c(c5)OCCO6)n4)cnn3n2)cc1` [GW818941X], the “fold change in fluorescence relative to zaprinast alone” value is 0.7769.
With `Fc1ccc(-c2ncn(C3CCNCC3)c2-c2ccnc(Oc3ccc4c(c3)OCO4)n2)cc1` [SB-250715], the “fold change in fluorescence relative to zaprinast alone” value is reported as 1.074.
Same read-out and setting: for `COc1ccc(NC(=O)c2ccc(-c3cc(-c4nnc(C)o4)ccc3C)cc2)cc1` [GW595885X] the value was 1.221.
As for `Nc1nccc(-c2c(-c3ccc(F)cc3)ncn2C2CCN(CC(F)(F)F)CC2)n1` [SB-236560], the “fold change in fluorescence relative to zaprinast alone” value was 0.7968.
The same measure, in the same setting: for `CCN1CCC(CC(=O)Nc2n[nH]c3nnc(-c4cccc(F)c4F)cc23)CC1` [SB-698596-AC] the value was 1.047; for `Cc1nnc(-c2ccc(C)c(-c3ccc(C(=O)Nc4cccc(C#N)c4)cc3)c2)o1` [GW607117X], 1.107.
As for `Nc1ncnc2occ(-c3ccc(NC(=O)Nc4cc(C(F)(F)F)ccc4F)cc3)c12` [SB-707548-A], for the setting “10 µM”, the “fold change in fluorescence relative to zaprinast alone” value is 1.011 and 0.2784.
Consider `CC(C)c1ccc(O)cc1Nc1ccnc2ccc(C(F)(F)F)cc12` [GW482059X], for which the “fold change in fluorescence relative to zaprinast alone” value came to 1.143.
`COc1cc2ncn(-c3cc(OCc4cccs4)c(C(N)=O)s3)c2cc1OC` [GSK312948A]: the “fold change in fluorescence relative to zaprinast alone” value came to 1.205.
As for `Cc1cc(N2CCC(NS(=O)(=O)c3ccc(F)cc3)CC2)nc(Nc2cccc(C#N)c2)n1` [GSK1653537A], the “fold change in fluorescence relative to zaprinast alone” value was found to be 0.8395.
Same read-out and setting: for `COc1cccc(-c2cc(-c3cn[nH]c3-c3ccccn3)ccn2)c1` [GW680338X] the value was 0.8974; for `NC[C@H](Cc1ccc(C(F)(F)F)cc1)NC(=O)c1cc(Br)c(-c2ccnc3[nH]ccc23)s1` [GSK1487252A], 0.4926.
Same read-out and setting: for `Cc1ccc(-n2nc(C(C)(C)C)cc2NC(=O)Nc2ccc(OCCN3CCOCC3)c3ccccc23)cc1` [GW839464X] the value was 1.059; for `COc1ccc(-c2nc3n(c2-c2ccncc2)CCC3)cc1` [SKF-104493-B2], 0.9045.
On the same count and under the same terms, for `C[C@@H](Oc1cc(-n2cnc3cc(-c4ccnc(N5CCN(C)CC5)c4)ccc32)sc1C(N)=O)c1ccccc1Cl` [GSK641502A] the value was 1.062; for `CN(C)CCNS(=O)(=O)c1ccc(-c2ccnc3[nH]ccc23)cc1` [GSK977620A], 1.218.
Regarding `Cc1ccc(Nc2ccnc(Nc3cccc(C(N)=O)c3)n2)cc1O` [GW575808A], the “fold change in fluorescence relative to zaprinast alone” value amounted to 1.342.
`CCCN1CCCC(c2ccc(Nc3nc(Nc4cc(F)ccc4C(N)=O)c4cc[nH]c4n3)c(OC)c2)C1` (stereo not shown) [GSK1173862A]: the “fold change in fluorescence relative to zaprinast alone” value stood at 1.98.
